Drawing on BindingDB's records for doi:10.1073/pnas.0606956103 (Targegen, 2006), this text covers IC50 for two compounds.

In general, pIC50 refers to the IC50 on a negative log10 scale, so that one unit is a factor of ten.

pIC50: −log10 of the molar value.

What all share (assay): Determination of PI3K Activity
Settings in all cases: pH 7.4; 22 °C

For assay [1], the target named is Phosphatidylinositol 3-kinase regulatory subunit alpha/4,5-bisphosphate 3-kinase catalytic subunit delta isoform (Homo sapiens, UniProt O00329).
The target in assay [2] is Phosphatidylinositol 3-kinase regulatory subunit alpha/4,5-bisphosphate 3-kinase catalytic subunit alpha isoform (Homo sapiens, UniProt P42336).
Assay [3] addresses Phosphatidylinositol 3-kinase regulatory subunit alpha/4,5-bisphosphate 3-kinase catalytic subunit beta isoform (Homo sapiens, UniProt P42338).

Phosphatidylinositol 3-kinase regulatory subunit alpha/4,5-bisphosphate 3-kinase catalytic subunit delta isoform, sequence (P27986 whole entry, canonical isoform): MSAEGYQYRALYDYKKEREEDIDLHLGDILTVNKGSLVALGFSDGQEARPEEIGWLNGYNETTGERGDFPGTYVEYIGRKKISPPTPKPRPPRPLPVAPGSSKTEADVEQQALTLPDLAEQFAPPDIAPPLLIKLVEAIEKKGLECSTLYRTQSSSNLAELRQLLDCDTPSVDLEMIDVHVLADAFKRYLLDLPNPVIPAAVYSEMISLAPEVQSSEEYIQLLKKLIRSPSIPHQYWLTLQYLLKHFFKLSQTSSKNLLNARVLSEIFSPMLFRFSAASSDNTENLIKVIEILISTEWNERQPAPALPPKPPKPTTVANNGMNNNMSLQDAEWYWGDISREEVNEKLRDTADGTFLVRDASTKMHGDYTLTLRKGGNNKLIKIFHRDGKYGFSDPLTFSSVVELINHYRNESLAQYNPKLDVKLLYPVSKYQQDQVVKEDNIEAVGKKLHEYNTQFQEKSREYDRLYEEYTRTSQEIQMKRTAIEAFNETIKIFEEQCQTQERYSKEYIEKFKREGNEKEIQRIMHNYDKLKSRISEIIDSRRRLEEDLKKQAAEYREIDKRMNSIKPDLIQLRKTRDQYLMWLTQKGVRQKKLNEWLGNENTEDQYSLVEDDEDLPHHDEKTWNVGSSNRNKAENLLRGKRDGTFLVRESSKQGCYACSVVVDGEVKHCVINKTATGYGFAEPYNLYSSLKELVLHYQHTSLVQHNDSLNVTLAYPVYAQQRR
Phosphatidylinositol 3-kinase regulatory subunit alpha/4,5-bisphosphate 3-kinase catalytic subunit delta isoform, sequence (O00329 whole entry, canonical isoform): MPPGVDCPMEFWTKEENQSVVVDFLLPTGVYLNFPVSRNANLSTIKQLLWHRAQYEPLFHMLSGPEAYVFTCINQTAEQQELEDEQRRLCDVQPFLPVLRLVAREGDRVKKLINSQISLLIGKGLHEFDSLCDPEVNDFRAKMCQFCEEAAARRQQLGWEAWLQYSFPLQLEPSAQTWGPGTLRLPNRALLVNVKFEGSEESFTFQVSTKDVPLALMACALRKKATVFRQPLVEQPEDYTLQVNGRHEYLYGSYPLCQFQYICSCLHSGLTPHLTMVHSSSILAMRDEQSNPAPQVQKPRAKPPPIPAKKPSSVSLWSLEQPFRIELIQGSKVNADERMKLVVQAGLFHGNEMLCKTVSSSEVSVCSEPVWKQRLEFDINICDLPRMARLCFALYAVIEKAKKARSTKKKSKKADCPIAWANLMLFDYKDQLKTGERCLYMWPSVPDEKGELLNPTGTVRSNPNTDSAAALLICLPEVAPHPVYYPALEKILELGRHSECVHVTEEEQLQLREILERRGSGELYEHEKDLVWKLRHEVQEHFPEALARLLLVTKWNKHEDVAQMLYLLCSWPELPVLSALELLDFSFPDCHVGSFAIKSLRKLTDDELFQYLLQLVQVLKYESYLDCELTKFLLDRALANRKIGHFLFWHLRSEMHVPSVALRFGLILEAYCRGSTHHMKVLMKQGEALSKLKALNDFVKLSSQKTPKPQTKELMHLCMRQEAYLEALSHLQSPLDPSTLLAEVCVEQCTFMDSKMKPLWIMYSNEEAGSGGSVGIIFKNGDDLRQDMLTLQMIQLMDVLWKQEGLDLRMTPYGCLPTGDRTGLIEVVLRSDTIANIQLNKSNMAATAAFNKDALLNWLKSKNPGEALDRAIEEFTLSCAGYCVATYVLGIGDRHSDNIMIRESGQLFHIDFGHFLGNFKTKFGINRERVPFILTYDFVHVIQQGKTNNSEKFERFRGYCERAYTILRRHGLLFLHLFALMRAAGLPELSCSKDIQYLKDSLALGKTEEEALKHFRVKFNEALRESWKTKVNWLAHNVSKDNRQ
Phosphatidylinositol 3-kinase regulatory subunit alpha/4,5-bisphosphate 3-kinase catalytic subunit beta isoform, sequence (P27986 whole entry, canonical isoform): as the sequence (P27986 whole entry, canonical isoform) above
Phosphatidylinositol 3-kinase regulatory subunit alpha/4,5-bisphosphate 3-kinase catalytic subunit beta isoform, sequence (P42338 whole entry, canonical isoform): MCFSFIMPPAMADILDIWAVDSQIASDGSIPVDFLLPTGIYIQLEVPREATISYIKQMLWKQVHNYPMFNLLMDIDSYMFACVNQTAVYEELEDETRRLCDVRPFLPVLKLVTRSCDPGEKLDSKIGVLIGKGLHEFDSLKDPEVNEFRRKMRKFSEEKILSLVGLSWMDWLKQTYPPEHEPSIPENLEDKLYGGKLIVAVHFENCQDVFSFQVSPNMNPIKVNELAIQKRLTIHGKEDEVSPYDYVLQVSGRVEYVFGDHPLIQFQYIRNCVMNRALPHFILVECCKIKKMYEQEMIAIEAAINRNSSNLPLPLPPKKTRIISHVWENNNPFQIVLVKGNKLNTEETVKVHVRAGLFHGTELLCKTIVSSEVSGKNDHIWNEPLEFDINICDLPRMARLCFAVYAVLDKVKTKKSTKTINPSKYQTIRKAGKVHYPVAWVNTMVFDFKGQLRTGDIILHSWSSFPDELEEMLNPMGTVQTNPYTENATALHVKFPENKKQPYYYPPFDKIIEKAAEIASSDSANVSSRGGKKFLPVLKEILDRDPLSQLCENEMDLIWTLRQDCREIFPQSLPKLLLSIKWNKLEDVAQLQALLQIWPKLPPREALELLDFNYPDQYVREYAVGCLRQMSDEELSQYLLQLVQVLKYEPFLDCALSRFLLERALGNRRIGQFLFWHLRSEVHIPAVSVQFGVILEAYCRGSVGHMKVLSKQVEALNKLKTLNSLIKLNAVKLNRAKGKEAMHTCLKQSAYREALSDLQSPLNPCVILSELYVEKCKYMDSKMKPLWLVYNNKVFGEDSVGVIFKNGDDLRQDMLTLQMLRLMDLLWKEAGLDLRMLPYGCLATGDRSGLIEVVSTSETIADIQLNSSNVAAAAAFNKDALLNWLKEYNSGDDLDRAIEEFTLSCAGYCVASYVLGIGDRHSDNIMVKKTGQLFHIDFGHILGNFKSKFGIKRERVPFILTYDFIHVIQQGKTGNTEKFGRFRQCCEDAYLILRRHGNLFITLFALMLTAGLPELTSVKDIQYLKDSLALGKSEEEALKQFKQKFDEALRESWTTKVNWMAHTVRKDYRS
Phosphatidylinositol 3-kinase regulatory subunit alpha/4,5-bisphosphate 3-kinase catalytic subunit alpha isoform, sequence (P27986 whole entry, canonical isoform): as the sequence (P27986 whole entry, canonical isoform) above
Phosphatidylinositol 3-kinase regulatory subunit alpha/4,5-bisphosphate 3-kinase catalytic subunit alpha isoform, sequence (P42336 whole entry, canonical isoform): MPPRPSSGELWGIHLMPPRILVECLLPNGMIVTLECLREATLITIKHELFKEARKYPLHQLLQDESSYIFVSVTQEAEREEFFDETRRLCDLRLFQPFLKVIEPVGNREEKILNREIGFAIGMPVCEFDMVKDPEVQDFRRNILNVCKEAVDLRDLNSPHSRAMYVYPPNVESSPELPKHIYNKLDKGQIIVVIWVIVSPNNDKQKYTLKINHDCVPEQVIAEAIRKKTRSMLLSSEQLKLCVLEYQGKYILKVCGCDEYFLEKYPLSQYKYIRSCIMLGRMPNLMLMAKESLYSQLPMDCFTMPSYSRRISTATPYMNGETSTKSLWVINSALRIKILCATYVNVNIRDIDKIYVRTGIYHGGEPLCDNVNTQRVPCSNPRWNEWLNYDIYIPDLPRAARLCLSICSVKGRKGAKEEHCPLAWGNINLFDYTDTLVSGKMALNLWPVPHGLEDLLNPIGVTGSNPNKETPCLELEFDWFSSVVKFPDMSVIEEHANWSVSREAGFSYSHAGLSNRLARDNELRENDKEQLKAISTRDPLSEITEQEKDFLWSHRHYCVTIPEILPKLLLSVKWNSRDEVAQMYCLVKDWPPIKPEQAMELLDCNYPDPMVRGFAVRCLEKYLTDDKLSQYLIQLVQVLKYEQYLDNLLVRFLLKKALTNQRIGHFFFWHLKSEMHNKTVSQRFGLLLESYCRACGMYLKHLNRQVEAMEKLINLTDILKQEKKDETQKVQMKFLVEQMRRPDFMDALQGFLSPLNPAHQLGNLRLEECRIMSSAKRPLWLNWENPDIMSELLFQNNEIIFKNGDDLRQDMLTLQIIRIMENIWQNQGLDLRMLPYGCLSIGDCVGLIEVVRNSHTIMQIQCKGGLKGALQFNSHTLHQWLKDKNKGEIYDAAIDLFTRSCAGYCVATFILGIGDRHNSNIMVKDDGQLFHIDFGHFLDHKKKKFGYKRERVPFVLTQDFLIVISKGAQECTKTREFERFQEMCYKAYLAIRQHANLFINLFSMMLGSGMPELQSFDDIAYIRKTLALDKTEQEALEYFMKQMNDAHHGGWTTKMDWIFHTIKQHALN

As to `O=c1cc(N2CCOCC2)oc2c(-c3ccccc3)cccc12`, the negative-log IC50 (pIC50) in assay [1] is 6.25.
For `Nc1nc(N)c2nc(-c3cccc4[nH]ccc34)cnc2n1` [6-(1H-indol-4-yl)pteridine-2,4-diamine], the values for the pIC50 in assay [2], in assay [1] and in assay [3] were 5.92, 7.19 and 6.97, respectively.
